For assay [1], the system named is SMMC-7721. Put plainly: Cytotoxicity against human SMMC7721 cells assessed as decrease in cell viability after 4 days by MTT assay. The class given is functional, cell-based. The note with it: SMMC-7721, 96 h. (In general: Tetrazolium dyes change colour on reduction, which living cells bring about.)
In assay [2] the test system is SW480. Put plainly: Cytotoxicity against human SW480 cells assessed as decrease in cell viability after 4 days by MTT assay. The note with it: SW480, 96 h. The class given is functional, cell-based.
Assay [3] relates to HL-60. Put plainly: Cytotoxicity against human HL60 cells assessed as decrease in cell viability after 4 days by MTT assay. It counts as functional, cell-based. The note with it: HL-60, 96 h.
The test system of assay [4] is MCF7. Kind of assay: Cytotoxicity against human MCF7 cells assessed as decrease in cell viability after 4 days by MTT assay. The class given is functional, cell-based. To be noted: MCF7, 96 h.
Assay [5] has as its system A549. Put plainly: Cytotoxicity against human A549 cells assessed as decrease in cell viability after 4 days by MTT assay. The class given is functional, cell-based. The note with it: A549, 96 h.
Assay [6] deals with MCF7. Kind of assay: Potency index, ratio of cisplatin IC50 to compound IC50 for human MCF7 cells. It counts as functional.
Assay [7] has as its system SW480. Put plainly: Potency index, ratio of cisplatin IC50 to compound IC50 for human SW480 cells. It counts as functional.

Where only a bound is given, the exact number is not on record here.

As a reminder, the IC50 is the concentration that gives 50% inhibition. As for `C=C1C(=O)[C@]23C[C@@]1(O)CC[C@H]2c1ccc(OS(=O)(=O)c2ccc(C)cc2)c(C)c1[C@@H]3Cn1cc(-c2ccc(Cl)cc2)nn1`, the IC50 in assay [1] worked out at 6180 nM; in assay [2], 2390 nM; in assay [3] it was 1260 nM; in assay [4] it was 1440 nM; in assay [5], 1870 nM. In assay [6], the “Ratio IC50” value is 8.

Turning to `C=C1C(=O)[C@]23C[C@@]1(O)CC[C@H]2c1ccc(OS(=O)(=O)c2ccc(C)cc2)c(C)c1[C@@H]3Cn1cc(-c2ccc(F)cc2)nn1`, the IC50 in assay [1] turned out to be 4280 nM; in assay [2], 1630 nM; in assay [3], 1290 nM; in assay [4] it was 330 nM; in assay [5], 1950 nM. For the same molecule, the “Ratio IC50” value in assay [6] worked out at 35.

Turning to `C=C1C(=O)[C@]23C[C@@]1(O)CC[C@H]2c1ccc(OS(=O)(=O)c2ccc(C)cc2)c(C)c1[C@@H]3Cn1cc(-c2ccc(C)cc2)nn1`, the IC50 in assay [1] was determined as 4410 nM; in assay [2] it was 1460 nM; in assay [3], 1110 nM; in assay [4], 320 nM; in assay [5], 1830 nM. For the same molecule, the “Ratio IC50” value in assay [6] was determined as 36.

In the case of `C=C1C(=O)[C@]23C[C@@]1(O)CC[C@H]2c1ccc(O)c(C)c1[C@@H]3Cn1cc(-c2ccc(C)cc2)nn1`, the “Ratio IC50” value in assay [7] was found to be 25. Also, the IC50 was found to be 920 nM in assay [1]; 330 nM in assay [2]; 830 nM in assay [3]; 370 nM in assay [4]; 1260 nM in assay [5].

With `C=C1C(=O)[C@]23C[C@@]1(O)CC[C@H]2c1ccc(O)c(C)c1[C@@H]3Cn1cc(-c2ccc(Br)cc2)nn1`, in assay [7], the “Ratio IC50” value came out at 36. Moreover, the IC50 in assay [1] is 1300 nM; in assay [2], 310 nM; in assay [3], 560 nM; in assay [4], 270 nM; in assay [5], 1140 nM.

On to `C=C1C(=O)[C@]23C[C@@]1(O)CC[C@H]2c1ccc(O)c(C)c1[C@@H]3Cn1cc(-c2ccccc2)nn1`, for which the “Ratio IC50” value in assay [7] was determined as 31. The IC50 was 1320 nM in assay [1]; 260 nM in assay [2]; 750 nM in assay [3]; 1740 nM in assay [4]; 1160 nM in assay [5].

Consider `C=C1C(=O)[C@]23C[C@@]1(O)CC[C@H]2c1ccc(O)c(C)c1[C@@H]3Cn1cc(-c2ccc(OC)cc2)nn1`, for which the “Ratio IC50” value in assay [7] was determined as 39. The concentration for half-maximal inhibition (IC50) in assay [1] was 860 nM; in assay [2], 220 nM; in assay [3], 1150 nM; in assay [4] it was 1710 nM; in assay [5], 1250 nM.

For the molecule `C=C1C(=O)[C@]23C[C@@]1(O)CC[C@H]2c1ccc(O)c(C)c1[C@@H]3Cn1cc(-c2ccc(Cl)cc2)nn1`, the “Ratio IC50” value in assay [7] is reported as 29. Further, the IC50 in assay [1] turned out to be 670 nM; in assay [2] it was 280 nM; in assay [3], 690 nM; in assay [4] it was 2470 nM; in assay [5], 640 nM.

Take `C=C1C(=O)[C@]23C[C@@]1(O)CC[C@H]2c1ccc(O)c(C)c1[C@@H]3Cn1cc(-c2ccc(C(F)(F)F)cc2)nn1`: the “Ratio IC50” value in assay [7] came out at 22. For the same molecule, the IC50 in assay [1] was determined as 1440 nM; in assay [2] it was 370 nM; in assay [3], 720 nM; in assay [4], 1840 nM; in assay [5], 1110 nM.

With `C=C1C(=O)[C@]23C[C@@]1(O)CC[C@H]2c1ccc(O)c(C)c1[C@@H]3Cn1cc(-c2ccccn2)nn1`, in assay [7], the “Ratio IC50” value stood at 20. For the same molecule, the IC50 amounted to 1270 nM in assay [1]; 410 nM in assay [2]; 1970 nM in assay [3]; 2240 nM in assay [4]; 1570 nM in assay [5].

Turning to `Cc1ccc(-c2cn(C[C@H]3c4c(ccc(OS(=O)(=O)c5ccc(C)cc5)c4C)[C@@H]4CC[C@@]5(C)C[C@]43CC5=O)nn2)cc1`, the IC50 in assay [1], in assay [2], in assay [3], in assay [4] and in assay [5] was > 20000 nM each time.

Values taken from ChEMBL document CHEMBL4219271, “Synthesis and anti-proliferative activity of allogibberic acid derivatives containing 1,2,3-triazole pharmacophore” (Bioorg Med Chem Lett, 2018).
